These are literature values, as cited in US20090142809A1, “Method for Cleaving Cervimycin Monoesters” (LEIBNIZ-INSTITUT FÜR NATURSTOFF-FORSCHUNG UND INFE, priority 2005, published 2009).

The subject of series [1] is multiresistant staphylococci. The settings on record: statement in words in the background section.
Series [2] relates to vancomycin-resistant Enterococcus faecalis. Particulars: statement in words in the background section.

Take `COC1=CC(=O)c2c(cc3c(c2O)C(=O)[C@@]2(O[C@H]4CC[C@H](O[C@H]5CC[C@H](O)[C@@H](C)O5)[C@@H](C)O4)C(O)=C(C(N)=O)C(=O)[C@H](O[C@H]4CC[C@H](O[C@H]5CC[C@H](O[C@H]6CC[C@H](O[C@H]7CC[C@H](O)[C@H](C)O7)[C@H](C)O6)[C@H](C)O5)[C@@H](C)O4)[C@H]2C3)C1=O` [cervimycin K]: in series [1], the “activity against multiresistant staphylococci” value was “extremely strong activity”. Besides, in series [2], the “activity against the vancomycin-resistant Enterococcus faecalis” value is “extremely strong activity”.
